# In paper PMC11945487 (Viruses, 2025):
# Columns and labels:
# [1] = tested on: HEK293 cells; test: MTT cytotoxicity assay; format: cell-based, human; conditions: HEK293, 24 h, 0 to 100 µM
# [2] = ref [41]; cited from earlier work
# [3] = molecular target: SARS-CoV-2 M^pro (Severe acute respiratory syndrome coronavirus 2, UniProt P0DTD1); format: binding; conditions: modified Stern–Volmer plot
SMILES,cytotoxicity / cell viability [1],solubility in organic solvents [2],KSV [3] [M⁻¹],number of binding sites [3]
O=c1c(O)c(-c2ccc(O)c(O)c2)oc2cc(O)cc(O)c12 [Quercetin],consistent and high cell viability,,,
"COc1cc2ccc(=O)oc2cc1O [Scopoletin, 6-methoxy-7-hydrocoumarian]",maintained acceptable cell viability,dissolves in organic solvents such as methanol and chloroform,932000,one
